ChEMBL document CHEMBL1201862, “PubChem BioAssay data set” (2004)
Activity calls are given as the source filed them. Rule as the data show it, for most assays here: actives have a measured IC50 and inactives only a lower limit.

Columns and labels:
[1] = molecular target: T1, Tyrosine-protein phosphatase non-receptor type 22 (Homo sapiens, UniProt Q9Y2R2); experiment: PubChem AID 2140
T1 sequence (Q9Y2R2 whole entry): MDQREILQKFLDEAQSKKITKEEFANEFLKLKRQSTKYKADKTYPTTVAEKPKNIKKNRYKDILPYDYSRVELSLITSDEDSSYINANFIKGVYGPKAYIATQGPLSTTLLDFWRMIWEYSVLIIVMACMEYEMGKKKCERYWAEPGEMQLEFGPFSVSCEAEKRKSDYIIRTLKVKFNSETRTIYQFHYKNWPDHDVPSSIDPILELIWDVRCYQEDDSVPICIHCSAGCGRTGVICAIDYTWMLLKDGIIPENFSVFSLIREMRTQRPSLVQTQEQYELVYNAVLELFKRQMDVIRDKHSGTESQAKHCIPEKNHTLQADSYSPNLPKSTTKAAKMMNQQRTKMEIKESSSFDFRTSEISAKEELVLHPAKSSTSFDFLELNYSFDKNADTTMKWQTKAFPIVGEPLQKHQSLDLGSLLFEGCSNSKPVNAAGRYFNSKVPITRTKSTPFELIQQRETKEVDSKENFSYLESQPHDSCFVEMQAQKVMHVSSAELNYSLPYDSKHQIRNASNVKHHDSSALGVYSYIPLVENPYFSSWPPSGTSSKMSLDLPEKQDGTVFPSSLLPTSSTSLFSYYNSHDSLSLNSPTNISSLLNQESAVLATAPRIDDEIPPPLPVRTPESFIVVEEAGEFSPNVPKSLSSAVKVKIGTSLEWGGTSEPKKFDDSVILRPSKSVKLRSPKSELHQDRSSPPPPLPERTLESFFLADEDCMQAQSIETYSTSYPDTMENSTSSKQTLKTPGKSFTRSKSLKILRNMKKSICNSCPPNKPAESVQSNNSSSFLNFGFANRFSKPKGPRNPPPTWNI

[2] = molecular target: T2, Sentrin-specific protease 7 (Homo sapiens, UniProt Q9BQF6); format: functional;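 also: Luminescence-based dose-response confirmation of ultra-high-throughput screening hits, measuring inhibition of SENP7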
T2 sequence (Q9BQF6 whole entry): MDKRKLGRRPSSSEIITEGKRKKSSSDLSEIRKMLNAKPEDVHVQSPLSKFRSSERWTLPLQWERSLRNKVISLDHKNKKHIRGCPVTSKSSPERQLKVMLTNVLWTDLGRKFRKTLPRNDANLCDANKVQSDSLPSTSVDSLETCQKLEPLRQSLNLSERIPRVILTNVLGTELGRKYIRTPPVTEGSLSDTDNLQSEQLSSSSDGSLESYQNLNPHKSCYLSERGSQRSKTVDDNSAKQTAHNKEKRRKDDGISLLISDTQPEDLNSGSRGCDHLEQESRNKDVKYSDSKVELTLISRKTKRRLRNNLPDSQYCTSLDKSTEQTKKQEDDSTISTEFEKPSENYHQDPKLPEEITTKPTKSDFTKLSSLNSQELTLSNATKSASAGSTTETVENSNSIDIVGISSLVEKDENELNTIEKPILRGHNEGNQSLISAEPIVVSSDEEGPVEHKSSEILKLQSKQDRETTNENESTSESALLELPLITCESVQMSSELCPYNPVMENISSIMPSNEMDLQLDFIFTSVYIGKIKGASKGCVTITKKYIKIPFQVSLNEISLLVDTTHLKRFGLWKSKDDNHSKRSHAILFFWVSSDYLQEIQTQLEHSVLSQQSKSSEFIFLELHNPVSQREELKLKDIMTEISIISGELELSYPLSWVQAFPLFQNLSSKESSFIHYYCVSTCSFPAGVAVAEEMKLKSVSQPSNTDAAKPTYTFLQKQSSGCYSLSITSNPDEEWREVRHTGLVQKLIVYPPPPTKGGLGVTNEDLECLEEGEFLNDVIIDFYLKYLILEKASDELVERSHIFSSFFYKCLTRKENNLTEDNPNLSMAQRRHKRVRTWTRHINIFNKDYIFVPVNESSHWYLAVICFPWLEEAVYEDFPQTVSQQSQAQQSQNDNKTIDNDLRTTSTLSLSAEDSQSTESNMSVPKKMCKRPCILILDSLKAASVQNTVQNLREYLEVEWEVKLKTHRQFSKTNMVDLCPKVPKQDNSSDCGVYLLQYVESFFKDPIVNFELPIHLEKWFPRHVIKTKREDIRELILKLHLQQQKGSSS

[3] = molecular target: T3, Sentrin-specific protease 6 (Homo sapiens, UniProt Q9GZR1); format: functional;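 also: Luminescence-based dose-response confirmatory assay of SENP6 inhibition, following up an ultra-high-throughput screen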
T3 sequence (Q9GZR1 whole entry): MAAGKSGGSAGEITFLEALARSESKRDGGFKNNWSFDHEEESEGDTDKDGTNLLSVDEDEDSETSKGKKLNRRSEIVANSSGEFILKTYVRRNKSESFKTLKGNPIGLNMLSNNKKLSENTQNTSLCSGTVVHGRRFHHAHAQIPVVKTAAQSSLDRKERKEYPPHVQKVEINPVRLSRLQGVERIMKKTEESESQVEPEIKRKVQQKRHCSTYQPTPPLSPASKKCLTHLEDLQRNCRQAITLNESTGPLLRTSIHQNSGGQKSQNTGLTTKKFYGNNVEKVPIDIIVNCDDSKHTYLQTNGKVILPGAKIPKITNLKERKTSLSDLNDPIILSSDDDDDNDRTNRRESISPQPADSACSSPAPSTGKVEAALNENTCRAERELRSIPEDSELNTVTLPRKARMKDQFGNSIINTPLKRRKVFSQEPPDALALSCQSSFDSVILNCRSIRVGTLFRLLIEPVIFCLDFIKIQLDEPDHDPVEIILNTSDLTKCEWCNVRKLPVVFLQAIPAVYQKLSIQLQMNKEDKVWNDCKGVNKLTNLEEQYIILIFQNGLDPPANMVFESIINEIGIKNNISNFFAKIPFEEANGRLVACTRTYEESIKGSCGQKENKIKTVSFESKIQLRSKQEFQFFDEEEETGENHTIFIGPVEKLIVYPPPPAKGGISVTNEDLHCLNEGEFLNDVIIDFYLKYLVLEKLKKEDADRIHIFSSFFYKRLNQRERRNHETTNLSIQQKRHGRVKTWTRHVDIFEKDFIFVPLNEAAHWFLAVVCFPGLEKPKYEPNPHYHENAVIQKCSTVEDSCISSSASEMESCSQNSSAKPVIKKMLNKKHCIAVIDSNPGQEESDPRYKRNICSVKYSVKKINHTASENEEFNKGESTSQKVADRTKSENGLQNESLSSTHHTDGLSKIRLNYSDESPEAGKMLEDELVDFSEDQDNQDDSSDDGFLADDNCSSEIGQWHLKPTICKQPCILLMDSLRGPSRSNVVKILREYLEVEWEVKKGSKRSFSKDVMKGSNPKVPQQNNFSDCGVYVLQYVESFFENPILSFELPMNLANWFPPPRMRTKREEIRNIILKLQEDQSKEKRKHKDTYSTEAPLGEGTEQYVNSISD

Compound | IC50 [1] | IC50 [2] | IC50 [3]
COc1ccc(/C=C2\SC(=S)N(CCC(=O)Nc3ccc(C(=O)O)cc3)C2=O)cc1OC | 7.46 µM (active) |  | 
COc1ccc(Nc2ccc3c(c2)=NC2(CCCCC2)[N+]=3[O-])cc1 |  | 9.21 µM (active) | 6.28 µM (active)
